We go through 17 compounds from ChEMBL document CHEMBL1136387, “Unique spirocyclopiperazinium salt. Part 2: synthesis and structure-activity relationship of dispirocyclopiperazinium salts as analgesics” (Bioorg Med Chem Lett, 2003).

The structures appear in SMILES notation.

Data set [1] concerns Mus musculus. In words: (§1) In vivo analgesic activity evaluated by using acetic acid writhing test in mice administered subcutaneously at a dose of 2 mg/kg. In kind it is functional. The note with it: sc, route subcutaneous.
In data set [2] the test system is Mus musculus. Described as §1. In kind it is functional. The note with it: sc, route subcutaneous. The source holds these as a separate data set.
Data set [3] is described as follows: Toxicity in mice administered subcutaneously. The note with it: mouse, in vivo, sc.
The test system of data set [4] is Mus musculus. In words: (§2) In vivo analgesic activity evaluated by using acetic acid writhing test in mice administered subcutaneously at a dose of 0.02 mg/kg. In kind it is functional. The note with it: sc, route subcutaneous. In general terms: An intraperitoneal irritant provokes the stretching counted in writhing tests.
Data set [5] deals with Mus musculus. The data set is described as §2. The format is functional. Conditions: sc, route subcutaneous. This is another data set of the same source.
Data set [6] has as its system Mus musculus. In words: (§3) In vivo analgesic activity evaluated by using acetic acid writhing test in mice administered subcutaneously at a dose of 10 mg/kg. The format is functional. The note with it: sc, route subcutaneous.
Data set [7] relates to Mus musculus. In words: In vivo analgesic activity evaluated by using acetic acid writhing test in mice administered subcutaneously at a dose of 20 mg/kg. The format is functional. The note with it: sc, route subcutaneous.
Data set [8] concerns Mus musculus. In words: In vivo analgesic activity evaluated by using acetic acid writhing test in mice administered subcutaneously at a dose of […]. The format is functional. The note with it: sc, dose 2.5 mg/kg, route subcutaneous.
The test system of data set [9] is Mus musculus. In words: (§4) In vivo analgesic activity evaluated by using acetic acid writhing test in mice administered subcutaneously at a dose of 5 mg/kg. In kind it is functional. The note with it: sc, route subcutaneous.
The test system of data set [10] is Mus musculus. In words: In vivo analgesic activity evaluated by using acetic acid writhing test in mice administered subcutaneously at a dose of 0.05 mg/kg. The format is functional. The note with it: sc, route subcutaneous.
Data set [11] deals with Mus musculus. In words: (§5) In vivo analgesic activity evaluated by using acetic acid writhing test in mice administered subcutaneously at a dose of 0.2 mg/kg. The format is functional. The note with it: sc, route subcutaneous.
The subject of data set [12] is Mus musculus. The data set is described as §5. In kind it is functional. Conditions: sc, route subcutaneous. The source holds these as a separate data set.
Data set [13] is filed under the species Mus musculus. In words: […]. In kind it is functional. Conditions: sc, route subcutaneous.
The test system of data set [14] is Mus musculus. The description is as §4. The format is functional. Conditions: sc, route subcutaneous. The source holds these as a separate data set.
For data set [15], the system named is Mus musculus. The data set is described as §3. In kind it is functional. Conditions: sc, route subcutaneous. The source holds these as a separate data set.

`O=C(CCCC(=O)N1CC[N+]2(CCCC2)CC1)N1CC[N+]2(CCCC2)CC1.[Br-].[Br-]`: the inhibition in vivo (usually the drop in the measured response relative to a control, in per cent) at 2 mg/kg in data set [1] is 0%; in [2] it was 67.4%. In addition, the Death dose in [3] was 20 mg/kg.
For the compound `O=C(CCCCCCC(=O)N1CC[N+]2(CCCC2)CC1)N1CC[N+]2(CCCC2)CC1.[Br-].[Br-]`, in data set [3], the Death dose came out at 0.2 mg/kg. Also, the inhibition in vivo at 0.02 mg/kg in data set [4] was 27.5%; in data set [5] it was 0%.
In data set [6], `CN1CCN(C(=O)CCCCC(=O)N2CCN(C)CC2)CC1` returned an inhibition in vivo at 10 mg/kg of 10.9%.
In [3], `O=C(CCCCCC(=O)N1CC[N+]2(CCCC2)CC1)N1CC[N+]2(CCCC2)CC1.[Br-].[Br-]` yielded a Death dose of 0.2 mg/kg. Also, the inhibition in vivo at 0.02 mg/kg in [4] and in data set [5] was 0% in each case.
Regarding `C(CCCCN1CC[N+]2(CCCC2)CC1)CCCN1CC[N+]2(CCCC2)CC1`, the figures for the inhibition in vivo at 2 mg/kg in data set [1] and in data set [2] were 0% and 98.6%, respectively.
For `O=C(CC(=O)N1CC[N+]2(CCCC2)CC1)N1CC[N+]2(CCCC2)CC1.[Br-].[Br-]`, the inhibition in vivo at 2 mg/kg in data set [1] and in data set [2] was 0% each time. Also, in data set [3], the Death dose came to 40 mg/kg.
As to `C(CCCCCN1CC[N+]2(CCCC2)CC1)CCCCN1CC[N+]2(CCCC2)CC1`, the results for the inhibition in vivo at 2 mg/kg in data set [1] and in data set [2] were 0% and 84.6%, respectively.
For the compound `C(CCCN1CC[N+]2(CCCC2)CC1)CCN1CC[N+]2(CCCC2)CC1`, the inhibition in vivo at 2 mg/kg in [1] came to 56.6%; in data set [2], 72.4%.
Turning to `CCCCCCOC(CN1CC[N+]2(CCCC2)CC1)CN1CC[N+]2(CCCC2)CC1`, the inhibition in vivo at 20 mg/kg in data set [7] was 100%. The compound further yielded an inhibition in vivo at 10 mg/kg in data set [6] of 91%. Moreover, the inhibition in vivo at […] in data set [8] stood at 49%. The compound further came in with an inhibition in vivo at 5 mg/kg in data set [9] of 61%.
For the compound `C[N+]1(C)CCN(C(=O)CCCCC(=O)N2CC[N+](C)(C)CC2)CC1`, at 0.05 mg/kg the inhibition in vivo in [10] was 60.1%.
In turn, `CCCCCCCCCCCCOC(CN1CC[N+]2(CCCC2)CC1)CN1CC[N+]2(CCCC2)CC1` gave an inhibition in vivo at 20 mg/kg in data set [7] of 18%.
`O=C(CCCCC(=O)N1CC[N+]2(CCCC2)CC1)N1CC[N+]2(CCCC2)CC1.[Br-].[Br-]` registered a Death dose in [3] of 2 mg/kg. Besides, the inhibition in vivo at 0.2 mg/kg in [11] stood at 70.4%; in [12], 8.1%.
In data set [13], `CCCCCCCCCCCCCCCCCCOC(CN1CC[N+]2(CCCC2)CC1)CN1CC[N+]2(CCCC2)CC1` came in with an inhibition in vivo at 20 mg/kg of 24%.
Take `C(CN1CC[N+]2(CCCC2)CC1)CN1CC[N+]2(CCCC2)CC1`: the inhibition in vivo at 10 mg/kg in [6] is 96%; in [15] it was 4.7%. Further, the inhibition in vivo at 5 mg/kg in data set [14] was determined as 0%; in data set [9], 45.5%.
Turning to `O=C(CCC(=O)N1CC[N+]2(CCCC2)CC1)N1CC[N+]2(CCCC2)CC1.[Br-].[Br-]`, the figures for the inhibition in vivo at 2 mg/kg in data set [1] and in [2] were 0% and 47.7%, respectively. In data set [3], this compound showed a Death dose of 20 mg/kg.
Consider `CCOC(CN1CC[N+]2(CCCC2)CC1)CN1CC[N+]2(CCCC2)CC1`, for which the inhibition in vivo at 20 mg/kg in data set [7] amounted to 90%. Besides, 10 mg/kg produced 46% inhibition in vivo in data set [6]. In addition, the inhibition in vivo at 5 mg/kg in [9] came to 34%.
Consider `O=C(CCCCC(=O)N1CCNCC1)N1CCNCC1`, for which at 5 mg/kg the inhibition in vivo in data set [9] was 34.5%.
